The values below come from PubChem BioAssay (NCI).

Values joined by “and” are separate entries in the source; they are usually repeats but may differ in a detail not shown here. Equal entries are not always repeated.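 In this assay, cells in 96-well plates receive the compound at five concentrations for 48 hours. Endpoints are linearly interpolated between the surrounding concentrations. GI50: concentration for 50% inhibition of growth. TGI: concentration producing complete growth inhibition.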

What all share (assay): DTP human tumour cell line panel, 48 h
Assay [1] concerns 786-0 renal.
Assay [2] has as its system EKVX NSCLC.
Assay [3] deals with HOP-62 NSCLC.
In assay [4] the test system is MCF7 breast.
Assay [5] has as its system MOLT-4 leukemia.
In assay [6] the test system is OVCAR-4 ovarian.
Assay [7] concerns OVCAR-8 ovarian.
Assay [8] deals with PC-3 prostate.
Assay [9] relates to SNB-19 CNS.
The subject of assay [10] is SR leukemia.

Broadly, the TGI is the concentration giving total growth inhibition. Low values mean more potent growth arrest, high ones less potent growth arrest. Usually GI50 stands for the concentration at which growth is held to half of that of the control. `C[C@@H]1CC[C@H]2C(COCCOCC3=C(C(F)(F)F)O[C@@H]4O[C@@]5(C)CC[C@H]6[C@H](C)CC[C@@H]3[C@@]46OO5)=C(C(F)(F)F)O[C@@H]3O[C@@]4(C)CC[C@@H]1[C@]32OO4`: the concentration for total growth inhibition (TGI) in assay [1], in [2], in [3], in assay [4], in assay [5] and in assay [6] was over 100 µM throughout. Moreover, the TGI in assay [7], in [8], in assay [9] and in assay [10] was over 100 µM each time. Further, the GI50 in assay [2] is 0.795 µM; in assay [3], over 24 µM; in assay [4] it was 32.2 nM; in [5] it was under 34.9 nM; in [6] it was over 100000 nM; in assay [7], under 0.0261 µM. In addition, the GI50 in assay [8] was under 10 nM; in [10] it was 11.6 nM.
Regarding `C/C=C/[P+](c1ccccc1)(c1ccccc1)c1ccccc1`, the TGI was 37.6 µM in [1]; 13.5 µM in [2]; 27.4 µM in assay [3]; over 45.5 µM in assay [4]; 19.6 µM in [5]; 25.4 µM in assay [6]. The TGI in assay [7] is 17.3 µM; in assay [8], over 63.8 µM; in assay [9], 15 µM; in [10], 2.58 µM.
As to `COc1cc(OC)c(OC)cc1/C=N/N=C(\N)NO`, the TGI in [1], in assay [2], in [3], in assay [4], in assay [5] and in assay [6] was over 100 µM each time. For the same compound, the TGI in assay [7], in [8], in assay [9] and in assay [10] was over 100 µM throughout.
With `CC(=O)Nc1ccccc1SCCSSCCSc1ccccc1NC(C)=O`, the TGI in assay [1] is 64.3 µM; in [2], over 100 µM; in [3], over 100 µM; in [4], over 100 µM; in assay [5] it was over 100 µM; in assay [6] it was 57.1 µM. Further, the TGI in [7] was over 100 µM; in assay [8], over 100 µM; in assay [9] it was 36.7 µM; in assay [10], over 100 µM.
Take `CCCN(C(=O)c1c(Cl)nnc(Cl)c1C(=O)c1cc(Cl)nnc1Cl)c1cc(Cl)nnc1Cl`: the TGI in [1] came out at 21 µM; in [2], 27.3 µM; in [3] it was 48.8 µM; in [4] it was 16.8 µM; in assay [5] it was 12.5 µM; in assay [6] it was 38.1 µM. For the same compound, the concentration for total growth inhibition (TGI) in [7] was 5.78 µM; in assay [8], 22.2 µM; in assay [9] it was 87.7 µM; in assay [10], 20.3 µM.
Consider `COC(=O)C1CC2(CCC1=O)Cc1ccccc1C2=O` (stereo not drawn), for which the TGI in assay [1], in assay [2], in assay [3], in assay [4], in [5] and in assay [6] was over 100 µM each time. In addition, the TGI in assay [7], in assay [8], in assay [9] and in assay [10] was over 100 µM in each case.
Turning to `CCC(NC(C)c1ccccc1)C(O)c1ccc(OCc2ccccc2)c(OCc2ccccc2)c1` (stereo not drawn), the total growth inhibition concentration (TGI) in assay [1] stood at 27.1 µM; in assay [2], 31.2 µM; in assay [3] it was 32.2 µM; in assay [4], 31.1 µM; in [5] it was 33.4 µM; in [6], 33.5 µM. The TGI in [7] came to 30.1 µM; in [8] it was 27.4 µM; in [9], 28.6 µM; in assay [10] it was 5.58 µM.
As to `COC(=O)C1=CSC2(S1)C(C(=O)OC)=CSc1c2ssc1=Nc1ccccc1` (stereo not drawn), the TGI in [1] is 3.87 µM; in assay [2], over 100 µM; in assay [3], 8.67 µM; in [4], over 100 µM; in [5] it was 3.55 µM; in assay [6], 8.06 µM. Also, the TGI was 6.23 µM in assay [7], over 100 µM in assay [8], 8.71 µM in [9] and 3.56 µM in [10].
Take `COC(=O)c1c2n(c3ccccc13)C[C@H]1OC(C)(C)O[C@@H]21`: the TGI in [1], in [2], in [3], in assay [4], in [5] and in [6] was over 100 µM in each case. Besides, the TGI in assay [7], in assay [8], in assay [9] and in assay [10] was over 100 µM in each case.
For `Cc1c2cc[n+](CCN3CCCCC3)cc2c(C)c2c1[nH]c1ccc(O)cc12`, the TGI is 21.6 µM in [1]; 24.6 µM and 51.5 µM in assay [2]; 13 µM and 18.3 µM in assay [3]; 39.7 µM and 11.5 µM in assay [4]; 8.96 µM and 5.96 µM in assay [5]; 7.39 µM and 24.6 µM in [6]. For the same compound, the TGI was 30.6 µM and 44.7 µM in assay [7]; 28.6 µM in [8]; 10.2 µM and 29.1 µM in [9]; 3.49 µM in assay [10]. Besides, the GI50 in assay [2] was 7.83 µM; in assay [5], 267 nM and 38.5 nM; in [6] it was 2980 nM; in [7] it was 3.36 µM; in assay [9], 1960 nM.
`Cc1c(/C=N/NC(=S)Nc2ccccc2Cl)c(=O)n(-c2ccccc2)n1C`: the TGI in assay [1] is 50 µM; in assay [2], over 100 µM; in assay [3] it was 78.2 µM; in [4], over 100 µM; in [5], over 100 µM; in assay [6], over 100 µM. Besides, the TGI is 84.1 µM in assay [7], over 100 µM in assay [8], over 100 µM in [9] and over 100 µM in assay [10].
On to `O=C(N=S(NC(=O)c1ccccc1)C(Cl)(Cl)Cl)c1ccccc1` (stereo not drawn), for which the TGI is 54.9 µM in assay [1]; 39.2 µM in assay [2]; over 31.6 µM in assay [3]; 76.5 µM in assay [4]; 30.7 µM in [5]; 38 µM in assay [6]. Moreover, the TGI is 38.8 µM in assay [7], over 100 µM in assay [8], over 100 µM in assay [9] and over 73.4 µM in assay [10].
For the compound `CC1=C2C(=O)c3ccccc3C(=O)[C@H]2[C@H]2CCO[C@H]2O1`, the TGI in assay [1] is 37.8 µM; in assay [2], 91.6 µM; in assay [3] it was 40 µM; in assay [4] it was 23.6 µM; in assay [5], over 100 µM; in assay [6], 37.4 µM. Also, the concentration for total growth inhibition (TGI) in [7] is 45.2 µM; in [8], over 100 µM; in assay [9], over 100 µM; in assay [10], over 100 µM.
For the compound `CCOC(=O)CSc1nc(-c2ccccc2)c(C#N)c(=O)[nH]1`, the TGI in [1], in [2], in assay [3], in assay [4], in assay [5] and in assay [6] was over 100 µM in each case. For the same compound, the TGI in assay [7], in assay [8], in assay [9] and in assay [10] was over 100 µM in each case.
Regarding `O=C(c1ccccc1)c1ccc(COc2ccc(C(c3c(O)c4ccccc4oc3=O)c3c(O)c4ccccc4oc3=O)cc2)cc1`, the TGI in [1] was determined as 61.5 µM; in [2], 40 µM; in assay [3], 47.4 µM; in [4], 67.5 µM; in [5], 45.4 µM; in assay [6], 73 µM. The concentration for total growth inhibition (TGI) in assay [7] was 37.2 µM; in [8] it was 34.9 µM; in assay [9], 58.6 µM; in assay [10], 63.9 µM.
`CC(=O)OC1C(O)COC(O[C@H]2CC[C@]34C[C@]35CC[C@]3(C)C([C@@]6(C)CC[C@@H](C(C)(C)O)O6)[C@@H](O)C[C@@]3(C)C5C[C@H](OC3OCC(O)C(O)C3O)[C@H]4C2(C)C)C1OC1OCC(O)C(O)C1O` (stereo partly drawn): the concentration for total growth inhibition (TGI) in assay [1], in assay [2], in [3], in [4], in assay [5] and in assay [6] was over 100 µM in each case. The TGI in [7], in assay [8], in [9] and in assay [10] was over 100 µM in each case.
As to `O=C1C2CC=CCC2C(=O)N1n1c(-c2ccccc2)n[nH]c1=O` (stereo not drawn), the TGI in [1], in assay [2], in [3], in [4], in assay [5] and in assay [6] was over 100 µM throughout. The TGI in [7], in assay [8], in assay [9] and in assay [10] was over 100 µM each time.
Turning to `CN(C(=O)Cc1cc(Cl)c(Cl)cc1N=C=S)[C@H]1CCCC[C@@H]1N1CCCC1`, the TGI in assay [1] came out at 25.5 µM; in assay [2] it was 31.7 µM; in [3], 27.9 µM; in [4], 30.1 µM; in assay [5], 14.2 µM; in assay [6], 26.3 µM. Also, the TGI in assay [7] stood at 28.8 µM; in [8], 26.3 µM; in [9] it was 27.4 µM; in assay [10], 3.49 µM.
Take `CC(=O)OCC(OC(C)=O)C(OC(C)=O)C(C=NN(C(C)=O)S(=O)(=O)c1ccc(/C=C2\NC(=O)NC2=O)cc1)OC(C)=O` (stereo not drawn): the TGI in [1], in [2], in assay [3], in [4], in [5] and in assay [6] was over 100 µM in each case. Besides, the TGI in assay [7], in assay [8], in assay [9] and in assay [10] was over 100 µM in each case.
Turning to `CCOC(=O)/C(C(=S)Nc1ccccc1)=C(/N)N1CCCC1`, the TGI in [1], in assay [2], in assay [3], in assay [4], in [5] and in assay [6] was over 100 µM in each case. Further, the TGI in [7], in [8], in assay [9] and in assay [10] was over 100 µM each time.
On to `Cc1ccc(N2C(=O)C3c4[nH]c5ccccc5c4C4CCC(C(C)(C)C)CC4C3C2=O)cc1` (stereo not drawn), for which the concentration for total growth inhibition (TGI) was 14.8 µM in assay [1]; 42.4 µM in assay [2]; 11.6 µM in assay [3]; over 46 µM in assay [4]; 9.2 µM in assay [5]; 22.7 µM in assay [6]. Further, the TGI in assay [7] is 20.9 µM; in assay [8], 31.8 µM; in [9], 21.2 µM; in assay [10] it was 16.6 µM.
`Cc1n[nH]c(=O)c2cc(-c3ccccc3)[nH]c12`: the TGI in assay [1], in [2], in [3], in [4], in assay [5] and in [6] was over 100 µM in each case. Further, the TGI in assay [7] was over 100 µM; in assay [8], 96.6 µM; in assay [9], over 100 µM; in [10], over 100 µM.
With `O=c1cc(-c2cccc(Cl)c2)[nH]c2ncccc12`, the TGI was 14.5 µM in assay [1]; over 100 µM in assay [2]; 33.4 µM in assay [3]; over 100 µM in assay [4]; over 24.8 µM in assay [5]; over 100 µM in assay [6]. Moreover, the TGI is over 100 µM in assay [7], 0.0694 µM in [8], 24.1 µM in assay [9] and over 100 µM in [10].
